For data set [1], the system named is human SK—OV-3 ovarian cancer cells. In words: Cellular Activity Assay (cytotoxicity, crystal violet). The data set is classed as cell-based. The source says: To test the activity of compounds, two complimentary assays were used as described below. The Biochemical PRX3 Inhibition Assay tests the ability of each compound to crosslink PRX3 in a simple, in vitro system. In the Cellular Activity Assay, we are testing the ability of compounds to kill SK—OV-3 ovarian cancer cells.
The Cellular Activity Assay measures the EC50 of each compound in human SK—OV-3 ovarian cancer cells TS to be taken into the cell, transported to the mitochondria, and crosslink PRX3.
The cytotoxicity of compounds was measured as described in Nelson et al. (2021) Antioxidants (Basel) 10, 150; Cunniff et al. (2015) PloS one 10, e0127310; and Newick et al. (2012) PloS one 7, e39404. SK—OV-3 is an adherent, epithelial, adenocarcenoma cell line obtained from ATCC (ref #: HTB-77). SK—OV-3 cells are resistant to the commonly used chemotherapeutics, cis-platinum and doxorubicin. For this […], SK—OV-3 cells were plated in a 96-well plate. After 24 h recovery, the cells were treated for 48 hr with multiple concentrations of each compound ranging from 0.1-100 μM.
Cells were washed with PBS to remove dead cells and the remaining live cells were fixed with 3.0% formaldehyde and stained with 0.1% crystal violet. The amount of crystal violet was determined by reading the absorbance at 540 nm (crystal violet dye dissolved in 100% methanol) using a plate reader. The signal for crystal violet dye is proportional to the biomass of remaining live cells. GraphPad Prism9 software was used to calculate the effective inhibitory concentration (EC50) of test compounds. Results for each compound, are normalized to the amount of cells in control wells treated with the equivalent concentration of DMSO (negative control). TS or Compound A (Reference Compound) were included in each set of assays as a positive control.

The next data set is described as follows: Solubility Assay. It counts as physicochemical. Details: key: +++: >1 mM; ++: 0.1-1 mM; +: <0.1 mM; −: polymerized; n.d.: not detectable/not measurable. The note with it: 20 mM HEPES, 100 mM NaCl, pH 7.5, 18-24 hours at ambient temperature, HPLC. As for the experimental part: A 20 mM stock solution was made for each compound in DMSO. To measure solubility, 0.03-0.05 mL of the stock was added to 0.27 mL 20 mM HEPES, 100 mM NaCl, pH 7.5. The solution was mixed and rotated 18-24 hours at ambient temperature. The next day, solutions were centrifuged for 10 min at 20,000×g at 24° C. to remove insoluble, solid material. Next, 100 μL of the supernatant containing the soluble compound was added to 900 μL DMSO and High Performance Liquid Chromatography was performed as described in Table 1 and either HPLC gradient 1 (Table 2) for HPLC gradient 2 (Table 3). For each analog, a 200 μM standard and a 20 μM standard were prepared and run in parallel (standards were dissolved completely in 100% DMSO). The amount of compound in the experimental sample was calculated by comparing the area under the curve for compound peak to the area for the closest standard and correcting for dilution.

The target of the next data set is T1, purified human PRX3 (Homo sapiens, UniProt P30048).
T1 construct: made in house
T1 sequence (P30048 62-256): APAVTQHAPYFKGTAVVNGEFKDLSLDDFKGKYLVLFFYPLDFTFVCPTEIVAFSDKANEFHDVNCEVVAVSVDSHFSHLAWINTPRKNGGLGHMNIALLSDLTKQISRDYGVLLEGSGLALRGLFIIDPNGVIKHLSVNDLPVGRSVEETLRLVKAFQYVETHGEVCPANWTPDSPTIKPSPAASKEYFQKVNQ
Description: Biochemical PRX3 Inhibition Assay (crosslink by SDS PAGE + mono-adduct by MALDI-TOF MS). The note with it: incubated 1-2 hr at 37° C., hydrogen peroxide added. As for the experimental part: This assay tests the ability of each compound to form a covalent adduct with PRX3. The assay is performed as described in Nelson et al. (2021) Antioxidants (Basel) 10, 150; and Cunniff et al. (2015) PloS one 10, eO127310, and follows the appearance of non-reducible PRX3 crosslinks by SDS PAGE gel electrophoresis and follows the appearance of single PRX3 adducts by mass spectrometry. For this assay, purified human PRX3, hydrogen peroxide (the PRX3 substrate) and all the components required to enable PRX3 to catalytically cycle (thioredoxin-thioredoxin reductase-NAPDH system) are included (details below).
The biochemical PRX3 Inhibition assay contains 100 µM PRX3, 50 µM human TRX2, 0.5 μM mouse thioredoxin reductase, and a NADPH regenerating system composed of 3.2 mM glucose 6-phosphate, 3.2 U/ml glucose 6-phosphate dehydrogenase and 0.4 mM NADPH. Samples are incubated for 1-2 hr at 37° C. with either 0.2 mM TS (positive control), compounds or an equivalent volume of DMSO (negative control). During this incubation, hydrogen peroxide is added to induce turnover of PRX3. Reactions are stopped by the addition of a buffer containing 100 mM dithiolthreitol (to break disulfide bonds) and SDS (detergent to denature proteins). NADPH, Glucose 6-Phosphate, and glucose 6-phosphate dehydrogenase were purchased from Sigma Aldrich. PRX3, thioredoxin, and thioredoxin reductase were all purified to >98% purity in the Lowther laboratory according to protocols referenced in Nelson et al. (2021) Antioxidants (Basel) 10, 150; and Cunniff et al. (2015) PloS one 10, e0127310.
To measure the amount of PRX3 crosslink, proteins in the reaction were separated by SDS-polyacrlyamide gel electrophoresis and stained for total protein using GelCode Blue (Life Technologies). The amount of unmodified PRX3 and TS-PRX3 crosslink was measured by densiometric analysis of the signal for the PRX3 band running at the MW of a PRX3 crosslink (˜46 kDa) compared to the PRX3 signal at the MW of the un-modified PRX3 (˜23 kD).
To measure covalent adduct formation on a single PRX3 monomer, each reaction was exchanged into a mass spectrometry compatible buffer containing 40 mM ammonium citrate, pH 8.3 made in HPLC water. Sample was mixed 1:1 with a matrix solution containing 30 mg/mL sinapinic acid in 70% (vol/vol) acetonitrile, 0.2% formic acid and spotted to onto the sample plate. PRX3 mass was measured by MALDI-TOF MS analysis on a Bruker Daltonics MALDI-TOF MS spectrometer. Spectra were analyzed in FLEXAnalysis Software. The intensity of the reduced PRX3 peak (SH) and intensity of the analog adduct peak was determined and corrected for background signal at the adduct peak in the DMSO control. The fraction of single analog adduct in the monomer peak was determined by dividing the intensity of the adduct peak by the summed intensity of the SH and adduct peaks.

Data set [2] concerns Enterococcus hirae (ATCC #10541). In words: Antimicrobial Activity Assay. As to conditions: for MIC: Enterococcus hirae. The data set is classed as cell-based. How it is done: The overnight growth was then diluted into growth media to make a single solution of E. hirae with a final optical density at 600 nm=0.02 AU. A 20 mM stock solution of Thiostrepton in DMSO was made and used to make multiple dilutions of TS in DMSO. Each TS dilution (0.1 mL) was then added to a test tube containing 10 mL of the diluted E. hirae and grown at 37° C. overnight while shaking at 180 rpm. The next morning, each tube was visually inspected to determine if the cells grew. Final concentrations tested were 0.120, 0.090, 0.075, 0.060, 0.045, 0.030, and 0.015 μM TS. […] Three replicates were made on three separate days (n=9). […] For TS analogs, the dilute E. hirae was treated with 20 µM final concentration of each analog (three replicates each). […] DMSO was used as a positive control (complete cell growth) and 20 µM thiostrepton was used as a negative control.

A further data set relates to 578 cancer cells lines. As to conditions: of 578 cancer cells lines tested; cited from earlier work.
Setting [3] is: HEPES/NaCl buffer, aqueous with cosolvent or surfactant or cyclodextrin, kinetic from dmso stock, read-out: Solubility.
Setting [4] is: ATCC10541, read-out: Antimicrobial Activity.
Where [5] appears, read: SK—OV-3 cells, treated 48 hr, 0.1-100 μM, crystal violet, read-out: EC50.
The mark [6] stands for this setting: ATCC10541, E. hirae, overnight growth at 37° C., read-out: Antimicrobial Activity.

≈ marks a conversion by molar mass, not a printed value. Where two headings read alike, the source gives them in different places.

The values that follow come from patent publication US20260069580A1, “PEROXIREDOXIN 3 INHIBITORS AND METHODS OF USE FOR TREATING CANCER” (WAKE FOREST UNIVERSITY HEALTH SCIENCES, priority 2022, published 2026).

With `C=C(NC(=O)c1cn(-c2ccccc2)cn1)C(=O)NC(=C)C(=O)OC` [Compound 1, Methyl 2-(2-(1-phenyl-1H-imidazole-4-carboxamido)acrylamido)acrylate], in data set [1] (SK-OV-3, 48 h), the EC50 lay within 1 to 10 µM. The solubility in “Solubility Assay” (setting [3]) was less than 100 µM. Also, the “PRX3 Inhibition (Crosslink + Mono-adduct)” value (“PRX3 Inhibition” for short) at purified human PRX3 is reported as “+++ (>90%)”. The MIC in data set [2] (setting [4]) is greater than 20 µM.
As for `C=C(NC(=O)c1cnn(-c2ccccc2)c1)C(=O)NC(=C)C(=O)OC` [Compound 2, Methyl 2-(2-(1-phenyl-1H-pyrazole-4-carboxamido)acrylamido)acrylate], the EC50 in data set [1] (setting [5]) was in the range of 10 to 25 µM. The solubility in “Solubility Assay” (setting [3]) is greater than 1000 µM. Moreover, the “PRX3 Inhibition” value at purified human PRX3 was “++ (50-90%)”. The MIC in data set [2] (setting [6]) was greater than 20 µM.
For the molecule `C=C(NC(=O)OCC1CCN(C(=O)OC(C)(C)C)CC1)C(=O)NC(=C)C(=O)OC` [Compound 3, Tert-butyl 4-(5,8-dimethylene-3,6,9-trioxo-2,10-dioxa-4,7-diazaundecyl)piperidine-1-carboxylate], in “Solubility Assay”, the solubility result is “−”. Besides, at purified human PRX3, the “PRX3 Inhibition” value is listed as “+ (5-50%)”.
As to `C=C(NC(=O)OC1CCN(C(=O)OC(C)(C)C)CC1)C(=O)NC(=C)C(=O)OC` [Compound 4, Tert-butyl 4-(((3-((3-methoxy-3-oxoprop-1-en-2-yl)amino)-3-oxoprop-1-en-2-yl)carbamoyl)oxy)piperidine-1-carboxylate], the EC50 in data set [1] (setting [5]) is greater than 100 µM. Further, in “Solubility Assay” (setting [3]), the solubility was greater than 1000 µM. Moreover, on purified human PRX3, the “PRX3 Inhibition” value is “++ (50-90%)”. Besides, the MIC in data set [2] (setting [6]) is greater than 20 µM.
Regarding `C=C(NC(=O)c1cn(C2CCN(C(=O)OC(C)(C)C)CC2)nn1)C(=O)NC(=C)C(=O)OC` [Compound 5, Tert-butyl 4-(4-((3-((3-methoxy-3-oxoprop-1-en-2-yl)amino)-3-oxoprop-1-en-2-yl)carbamoyl)-1H-1,2,3-triazol-1-yl)piperidine-1-carboxylate], the EC50 in data set [1] (setting [5]) lay in the range of 1 to 10 µM. In addition, the solubility in “Solubility Assay” (setting [3]) was less than 100 µM. Further, the “PRX3 Inhibition” value at purified human PRX3 is “++ (50-90%)”. Further, the MIC in data set [2] (setting [6]) was greater than 20 µM.
Take `C=C(NC(=O)c1ccn(C2CCN(C(=O)OC(C)(C)C)CC2)n1)C(=O)NC(=C)C(=O)OC` [Compound 6, Tert-butyl 4-(3-((3-((3-methoxy-3-oxoprop-1-en-2-yl)amino)-3-oxoprop-1-en-2-yl)carbamoyl)-1H-pyrazol-1-yl)piperidine-1-carboxylate]: the half-maximal effective concentration (EC50) in data set [1] (setting [5]) lay in the range of 25 to 100 µM. In “Solubility Assay” (setting [3]), the solubility was greater than 1000 µM. In addition, the “PRX3 Inhibition” value at purified human PRX3 was “+++ (>90%)”. For the same molecule, in data set [2] (setting [6]), the MIC was greater than 20 µM.
Take `C=C(NC(=O)c1csc(-c2ccc(NC(=O)CCCCCBr)cc2)n1)C(=O)NC(=C)C(=O)OC` [Compound A, Methyl 2-(2-(2-(4-(6-bromohexanamido)phenyl)thiazole-4-carboxamido)acrylamido)acrylate, reference compound]: the solubility in the data set “Solubility Assay” (setting [3]) was less than 100 µM. Also, in data set [2] (E. hirae, overnight growth at 37° C.), the “Antimicrobial Activity” value was “− (>20 μM)”.
In data set [1] (SK-OV-3, 48 h), `C=C(NC(=O)C(=C)NC(=O)c1csc(C2=N[C@@H]3c4csc(n4)[C@H]4NC(=O)c5csc(n5)[C@H]([C@](C)(O)[C@@H](C)O)NC(=O)[C@H]5CSC(=N5)/C(=C/C)NC(=O)[C@H]([C@@H](C)O)NC(=O)c5csc(n5)[C@]3(CC2)NC(=O)[C@H](C)NC(=O)C(=C)NC(=O)[C@H](C)NC(=O)[C@H]([C@@H](C)CC)N[C@@H]2C=Cc3c([C@H](C)O)cc(nc3[C@H]2O)C(=O)O[C@@H]4C)n1)C(N)=O` [Thiostrepton, reference compound] had an EC50 of 1 to 10 µM. Besides, the “tumor cells lines in which meaningful efficacy was shown” value in the data set with 578 cancer cells lines is on record as 403. Moreover, in “Solubility Assay” (aqueous with cosolvent or surfactant or cyclodextrin, kinetic from dmso stock, read-out: Solubility), the solubility was less than 100 µM. The “PRX3 Inhibition” value at purified human PRX3 is “++ (50-90%)”. Moreover, the “TS concentrations at which complete growth was observed” value in data set [2] (E. hirae, overnight at 37° C., visual inspection, n=9) was no more than 0.030 µM. The MIC in data set [2] (setting [4]) is 0.02 to 0.2 µM (≈ 0.0333 to 0.333 µg/mL); in data set [2] (ATCC10541, read-out: TS concentrations at which no growth was observed (MIC determination)), no less than 0.045 µM.

A word on the EC50: it is the concentration needed to bring the measured effect to its halfway point. Broadly, the solubility is how much of the substance goes into solution per volume.
